This passage reports TGI and GI50 results from PubChem BioAssay (NCI).

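96-well plates; 48 h exposure; 5 concentrations. Endpoints by linear interpolation between flanking doses. Not reached: highest tested concentration assigned. Abbreviation: GI50, concentration required for 50% inhibition of growth. TGI denotes the concentration required for complete inhibition of growth.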 Some results are limits rather than exact numbers.

Test systems include NCI-H226 lung; SF-539 CNS; UACC-62 melanoma; HCT-116 colon; UACC-257 melanoma; NCI-H460 lung; SNB-78 CNS; NCI-H23 lung; SF-295 CNS; XF 498 CNS; HOP-92 NSCLC.
Holding throughout (assay): NCI-60 cell line screen, 48 h

`Cc1ccc(Nc2ccc(Nc3ccc(C)cc3S(=O)(=O)O)c3c2C(=O)c2ccccc2C3=O)c(S(=O)(=O)O)c1`: the TGI in the assay on NCI-H226 lung, with SF-539 CNS, in the assay with UACC-62 melanoma, in the assay with HCT-116 colon, in the assay with UACC-257 melanoma and with NCI-H460 lung was more than 100 µM throughout. In addition, the TGI in the assay with SNB-78 CNS was more than 100 µM.

Turning to `Cc1oc2c(C)c3oc(=O)cc(C)c3cc2c1CN`, the TGI in the assay with NCI-H226 lung is 91.2 µM; with SF-539 CNS, more than 100 µM; in the assay on UACC-62 melanoma, more than 100 µM; in the assay on NCI-H23 lung, more than 100 µM; in the assay with HCT-116 colon it was more than 100 µM; in the assay on UACC-257 melanoma, more than 100 µM. Also, the TGI is more than 100 µM with NCI-H460 lung, more than 100 µM with SNB-78 CNS, more than 100 µM with SF-295 CNS and 73.8 µM in the assay on XF 498 CNS.

For `NC(CNc1ccc(O)cc1)C(=O)O` (stereo not given), the TGI is more than 100 µM with NCI-H226 lung; 49.4 µM in the assay with UACC-62 melanoma; more than 100 µM with HCT-116 colon; more than 100 µM with UACC-257 melanoma; more than 100 µM with HOP-92 NSCLC; more than 100 µM with NCI-H460 lung. For the same compound, the TGI in the assay with SNB-78 CNS is more than 100 µM; in the assay on SF-295 CNS, more than 100 µM; in the assay with XF 498 CNS, 29.1 µM.

For the compound `CCCN1C(=O)/C(=C(/O)C(=O)OCC)C(c2ccc(OC)c(OC)c2)C1=O` (stereo not given), the TGI in the assay with NCI-H226 lung, in the assay on SF-539 CNS, in the assay with UACC-62 melanoma, in the assay with NCI-H23 lung, in the assay on HCT-116 colon and in the assay on UACC-257 melanoma was more than 100 µM in each case. Besides, the TGI in the assay with HOP-92 NSCLC was more than 100 µM; in the assay with NCI-H460 lung it was more than 31.6 µM; in the assay on SNB-78 CNS it was more than 100 µM; with SF-295 CNS, more than 100 µM; in the assay on XF 498 CNS, more than 100 µM.

With `C/C(=C/c1c(C)[nH]c(=O)[nH]c1=O)C(=O)O`, the TGI in the assay on NCI-H226 lung is more than 1370 µM; in the assay on SF-539 CNS, more than 1380 µM; in the assay with UACC-62 melanoma, more than 1380 µM; in the assay with NCI-H23 lung it was more than 1380 µM; in the assay on HCT-116 colon, more than 1380 µM; in the assay with UACC-257 melanoma, more than 1380 µM. The TGI in the assay on HOP-92 NSCLC is more than 1380 µM; in the assay with NCI-H460 lung, more than 1380 µM; with SNB-78 CNS, more than 1380 µM; in the assay with SF-295 CNS, more than 1380 µM; in the assay on XF 498 CNS it was more than 1370 µM. Moreover, the GI50 with HOP-92 NSCLC is more than 1380 µM.

Turning to `O=C1/C(=C2\SCC(=O)N2c2ccccc2)SC(=S)N1c1ccccc1`, the TGI was 48.4 µM in the assay with NCI-H226 lung; 85.4 µM in the assay with SF-539 CNS; more than 100 µM in the assay on UACC-62 melanoma; more than 100 µM in the assay on NCI-H23 lung; more than 100 µM with HCT-116 colon; more than 100 µM in the assay with UACC-257 melanoma. In addition, the TGI in the assay on HOP-92 NSCLC was 82.7 µM; with NCI-H460 lung, more than 100 µM; in the assay with SF-295 CNS, 82.7 µM.

Turning to `CN(C)/C=N/S(=O)(=O)c1nn2c(C=O)c(-c3cc4ccccc4oc3=O)nc2s1`, the TGI in the assay on NCI-H226 lung is more than 56.5 µM; in the assay on SF-539 CNS, 61 µM; with UACC-62 melanoma, 27.5 µM; in the assay on NCI-H23 lung, 42.4 µM; with HCT-116 colon it was 5.89 µM; in the assay with UACC-257 melanoma it was 29.3 µM. The values for the TGI in the assay on HOP-92 NSCLC, in the assay on NCI-H460 lung and in the assay on SF-295 CNS were 19.2 µM, more than 88.1 µM and more than 100 µM, respectively.

On to `CC(C)(Oc1ccc(C(=O)c2ccc(Cl)cc2)cc1Cl)C(=O)N1CCN(c2ccccc2)CC1`, for which the TGI in the assay on SF-539 CNS, in the assay with UACC-62 melanoma, in the assay on NCI-H23 lung, in the assay with HCT-116 colon, in the assay on UACC-257 melanoma and in the assay with HOP-92 NSCLC was more than 100 µM in each case. For the same compound, the TGI in the assay on NCI-H460 lung, in the assay on SNB-78 CNS, in the assay with SF-295 CNS and in the assay on XF 498 CNS was more than 100 µM in each case.

For the compound `Cc1ccc(CC(=O)Nc2ccc(NC(=O)CNC(=O)/C=C/c3ccc(-c4ccccc4)cc3)cc2C(=O)c2ccccc2)cc1`, the TGI in the assay on NCI-H226 lung stood at 8.39 µM; in the assay with SF-539 CNS, 8.85 µM; in the assay on UACC-62 melanoma, 30.8 µM; in the assay on NCI-H23 lung, 4.71 µM; in the assay on HCT-116 colon, 2.65 µM; in the assay with UACC-257 melanoma, 22.7 µM. For the same compound, the TGI amounted to 15.4 µM in the assay with HOP-92 NSCLC, 11.1 µM in the assay on NCI-H460 lung and 4.86 µM in the assay with SF-295 CNS.

As to `COc1ccc(N2C(=O)C3c4[nH]c5ccccc5c4C4CCC(C(C)(C)C)CC4C3C2=O)cc1OC` (stereo not given), the TGI in the assay on NCI-H226 lung was 38.8 µM; with SF-539 CNS, 34.7 µM; in the assay on UACC-62 melanoma it was more than 100 µM; with NCI-H23 lung, more than 100 µM; in the assay with HCT-116 colon it was 31.4 µM; in the assay on UACC-257 melanoma, more than 100 µM. Also, the TGI in the assay on HOP-92 NSCLC worked out at 44.8 µM; in the assay with SNB-78 CNS, 56.4 µM; in the assay on SF-295 CNS it was 42.6 µM; with XF 498 CNS, 34.7 µM.

Turning to `COc1c(Cl)c(Cl)c(OC)c2c1C(=O)C=CC2=O`, the TGI in the assay on NCI-H226 lung was more than 100 µM; in the assay on SF-539 CNS it was 41.2 µM; in the assay on UACC-62 melanoma, 30.4 µM; in the assay on NCI-H23 lung it was more than 100 µM; in the assay with HCT-116 colon, 31.6 µM; in the assay on UACC-257 melanoma, 35.4 µM. Moreover, the TGI was 28.8 µM in the assay with HOP-92 NSCLC; more than 100 µM with NCI-H460 lung; 26.7 µM in the assay on SNB-78 CNS; 48.8 µM in the assay on SF-295 CNS; 31 µM with XF 498 CNS.

As to `Oc1ccccc1C=Nc1ccccc1N=Cc1ccccc1O`, the TGI in the assay on NCI-H226 lung, with SF-539 CNS, in the assay with NCI-H23 lung, in the assay on HCT-116 colon, in the assay on UACC-257 melanoma and in the assay on NCI-H460 lung was more than 100 µM throughout. The TGI in the assay on SF-295 CNS and in the assay with XF 498 CNS was more than 100 µM each time.

In the case of `COc1cc(C2c3cc4c(cc3OC(N3CCOCC3)C2C)OCO4)cc(OC)c1OC(C)=O` (stereo not given), the TGI with NCI-H226 lung is 62.7 µM; with SF-539 CNS it was 40.2 µM; in the assay with UACC-62 melanoma, more than 84.5 µM; in the assay on NCI-H23 lung, more than 95.2 µM; in the assay on HCT-116 colon, 60.8 µM; with UACC-257 melanoma it was more than 100 µM. Also, the results for the TGI with HOP-92 NSCLC, in the assay on NCI-H460 lung and in the assay on SF-295 CNS were more than 100 µM, more than 100 µM and 49 µM, respectively.

In the case of `O=[N+]([O-])c1ccc(-[n+]2ccc3ccccc3c2)c([N+](=O)[O-])c1`, the TGI is 43.6 µM in the assay with NCI-H226 lung; 12 µM with SF-539 CNS; 5.53 µM in the assay on UACC-62 melanoma; 6.03 µM with NCI-H23 lung; 5.95 µM in the assay on HCT-116 colon; 4.08 µM in the assay with UACC-257 melanoma. The results for the TGI in the assay on HOP-92 NSCLC, with NCI-H460 lung and in the assay on SF-295 CNS were 5.29 µM, 30.1 µM and 28.5 µM, respectively.

Consider `CCc1cc2c(oc3c4ccccc4ccc23)c(=O)[nH]1`, for which the TGI in the assay with NCI-H226 lung, with SF-539 CNS, with UACC-62 melanoma, in the assay on NCI-H23 lung, in the assay with HCT-116 colon and with UACC-257 melanoma was more than 10 µM each time. Moreover, the TGI in the assay with HOP-92 NSCLC, with NCI-H460 lung and in the assay with SF-295 CNS was more than 10 µM throughout.

With `O=C(O)C(CO)NC(=O)C1C(C(=O)O)C(c2ccccc2[N+](=O)[O-])C=C(c2ccco2)N1c1ccncc1` (stereo not given), the TGI with NCI-H226 lung turned out to be 39.1 µM; in the assay with SF-539 CNS, 3.64 µM; in the assay with UACC-62 melanoma, 20.3 µM; in the assay on NCI-H23 lung it was 19.9 µM; in the assay with HCT-116 colon, 3.08 µM; in the assay on UACC-257 melanoma, 9.9 µM. Besides, the values for the TGI in the assay with HOP-92 NSCLC, with NCI-H460 lung and in the assay on SF-295 CNS were 25.7 µM, 18.5 µM and 19 µM, respectively.

Take `CCOC(=O)CN(Cc1ccccc1)Cc1c(C(=O)c2ccccc2)c2ccccc2n1C(=O)c1ccccc1`: the TGI with NCI-H226 lung, in the assay with SF-539 CNS, in the assay with UACC-62 melanoma, with NCI-H23 lung, with HCT-116 colon and in the assay with HOP-92 NSCLC was more than 100 µM each time. The TGI in the assay on NCI-H460 lung, in the assay with SNB-78 CNS, in the assay with SF-295 CNS and in the assay on XF 498 CNS was more than 100 µM each time.

Regarding `COc1cc(C(CC(OC)OC)=C(C#N)C#N)cc(OC)c1OC`, the TGI with NCI-H226 lung was 13.9 µM; with SF-539 CNS, 37.1 µM; in the assay on UACC-62 melanoma, more than 100 µM; in the assay on NCI-H23 lung, more than 100 µM; in the assay with HCT-116 colon, 44.1 µM; with UACC-257 melanoma, 36.9 µM. Further, the TGI in the assay with HOP-92 NSCLC is 50 µM; in the assay with NCI-H460 lung it was 23.4 µM; in the assay on SNB-78 CNS it was more than 100 µM; with SF-295 CNS, 62.9 µM.

Take `OC1(c2ccc(Cl)cc2)c2ccccc2C2=NCc3ccccc3CN21` (stereo not given): the TGI in the assay with NCI-H226 lung turned out to be 20.8 µM; with SF-539 CNS it was 24.4 µM; in the assay with UACC-62 melanoma, 26.7 µM; in the assay on NCI-H23 lung, 23.7 µM; in the assay on HCT-116 colon, 19.2 µM; in the assay on UACC-257 melanoma, 28.3 µM. In addition, the values for the TGI in the assay on HOP-92 NSCLC, with NCI-H460 lung and with SF-295 CNS were 41.4 µM, 23.7 µM and 28.8 µM, respectively.
